Results: US11768156B2, “Methods and compositions for assessing cell viability” (Life Technologies Corporation, priority 2017, dated 2023)

What was measured:
Format in all cases: cell-based
[1] = tested on: Jurkat cells; test: Flow cytometry of live and heat-treated Jurkat cells stained in PBS or complete media
[2] = tested on: Jurkat cells
[3] = tested on: Jurkat cells; test: Flow cytometry of 50% live/50% dead Jurkat cell mixtures, fixed and permeabilized
[4] = tested on: Jurkat cells; test: Flow cytometry of 50% live/50% dead Jurkat cell mixtures fixed with 4% formaldehyde; details: 25 μM dye, PBS or complete media, substantial majority of live cells
[5] = tested on: untreated Jurkat cells; test: Flow cytometry of untreated Jurkat cells in PBS or complete media; details: 25 μM, five minutes, PBS and complete media
Experimental: Populations of untreated Jurkat cells in either PBS or complete media were incubated with 25 μM Compound 2 for five minutes and analyzed by flow cytometry. Results are shown in FIGS. 4A-4B (PBS and complete media, respectively).

## N=c1ccc2c(-c3ccc(C(=O)NCCCCCNC(=O)CCCc4ccc(N(CCCl)CCCl)cc4)cc3C(=O)O)c3ccc(N)c(S(=O)(=O)O)c3oc-2c1S(=O)(=O)O [Compound 2]
[1]; 25 μM dye, PBS versus complete media
  variation in intensity of staining due to the presence of complete media: little to no variation in intensity of staining
[1]; 25 μM dye, stained in PBS and in complete media (RPMI+10FBS), 488 nm excitation, 530/30 nm emission
  separation of live and dead cells in histograms: clear separation of live and dead cells
[1]; live and dead cell peaks, media and PBS
  histogram peaks for staining in media versus in PBS (FIGS. 1B, 1C): overlap
[2]
  difference of unstained control from live cell peaks, peak to peak: 1-1.5 logs
  separation of dead cell peaks from the live cell peaks: good separation
  separation of dead cells from live cells, peak to peak: over 2 logs
  staining of live cells (versus unstained control): negligible
[3]; fixed and permeabilized, 25 μM dye, PBS or complete media, substantial majority of live cells
  separation of live cells from dead cells: two logs of separation
[3]; fixed, permeabilized cells
  histogram peaks for staining in media versus in PBS (FIGS. 3A, 3B): mostly or partially overlap
[4]
  separation of live cells from dead cells: two logs of separation
[5]
  strongly labeled peaks corresponding to dead cells: 7-14 % of total cells
